These results are taken from publication PMC12692169, “Identification of Novel TAT-I24-Related Peptides with Antiviral Activities” (International Journal of Molecular Sciences, 2025).

Where two headings read alike, the source gives them in different places. Positions of bridges follow the written chain, without caps; N, C: chain ends. Residues, ends and D or L forms follow the SMILES beside them. No end group written: not given here.

Series [1] relates to Baculovirus/HEK293. As to conditions: for IC50: 24 h; for fold higher IC50 value compared to TAT-I24, baculovirus-transduced HEK293 cells: ratio to TAT-I24 IC50.
The subject of series [2] is mouse cytomegalovirus (MCMV)/NIH/3T3 cells. As to conditions: 72 h.
Series [3] deals with red blood cells (RBC). In words: RBC swelling (enlarged pellet after centrifugation). As to conditions: 1 h; for RBC swelling: peptides diluted in PBS (absence of serum), up to 20 µM, pellet size after centrifugation.
Series [4] deals with plasmid-DNA (dsDNA). As to the kind of experiment: Fluorescence-based dsDNA-binding assay (SYBR Gold, plasmid DNA). The settings on record: TAT-I24 as reference, three independent experiments in duplicates.
Method: We also included the TAT peptide, which binds DNA [34, 35].
Peptides were incubated with plasmid-DNA in the presence of SYBR^TM Gold dye. Reduction in fluorescence indicates binding of peptides to DNA. […] Curve fitting was performed using GraphPad Prism software.
DNA binding assay was performed, as described previously [26].
Series [5] relates to red blood cells (RBC). The settings on record: RBC 1 h 37 °C; for haemolysis: OD 450 nm of supernatant. As to the method:
Figure 4 Effect of peptides on haemolysis and RBC swelling. (A,B) RBCs were isolated and treated in conical 96-well plates with peptides diluted in PBS or in 10% donor serum for one hour. OD [450 nm] was determined in the supernatants after centrifugation of the plates. Mean ± SD from two experiments in triplicates are shown. […] Dashed lines indicate background OD. (C) Swelling of RBC after treatment with dilutions of peptides in PBS for one hour and centrifugation of the plates. Red wells indicate an enlarged cell pellet due to swelling of the RBCs. Sequences of the peptides are shown at the right and are indicated in red with the TAT fusion partner indicated in blue.
Whole blood was collected from a healthy volunteer after informed consent by venipuncture into K2E K2EDTA VacuetteTM tubes (Greiner Bio-One, Kremsmünster, Austria) with 4 mL blood. The assay for haemolysis was adapted from Sæbo et al. and performed as described previously. In brief, blood was centrifuged at 1000× g for 10 min, and plasma kept for further use, followed by resuspension of red blood cells (RBC) in PBS and centrifugation for three times. RBC were seeded at a cell number of 1 × 10^7 cells/100 µL PBS per well into conical 96-well plates (ThermoFisher, Darmstadt, Germany) and incubated with 100 µL of 1:2 peptide dilutions starting from 40 µM either in PBS or 10% donor serum. Plates were incubated at 37 °C for one hour before at 1000× g for 5 min. Supernatants were then transferred to flat 96-well plates and optical density (OD) was determined at 450 nm using a Glo-Max®-Multi Detection System (Promega, Mannheim, Germany). As positive control, cells were lysed with 0.5% Triton X-100. Images from centrifuged plates were taken using a Kodak PIXPRO camera (Rochester, NY, USA).

Series [6] concerns DiO-labelled MCMV in NIH/3T3 cells. The settings on record: previous study; cited from earlier work. The source says:
In contrast, the peptide TAT-M214, whi ...

In general, IC50 refers to the concentration at which inhibition is half-maximal. In the case of `CC(C)C[C@H](NC(=O)[C@H](CS)NC(=O)[C@H](C)NC(=O)[C@H](Cc1ccc(O)cc1)NC(=O)[C@H](Cc1ccccc1)NC(=O)[C@H](C)NC(=O)[C@H](CC(C)C)NC(=O)[C@H](CCC(N)=O)NC(=O)[C@@H]1CCCN1C(=O)[C@@H]1CCCN1C(=O)[C@H](CCCNC(=N)N)NC(=O)[C@H](CCCNC(=N)N)NC(=O)[C@H](CCCNC(=N)N)NC(=O)[C@H](CCC(N)=O)NC(=O)[C@H](CCCNC(=N)N)NC(=O)[C@H](CCCNC(=N)N)NC(=O)[C@H](CCCCN)NC(=O)[C@H](CCCCN)NC(=O)[C@H](CCCNC(=N)N)NC(=O)CN)C(=O)N[C@@H](C)C(=O)N[C@@H](Cc1ccccc1)C(=O)N[C@@H](CS)C(=O)O` [TAT-M14] (H-GRKKRRQRRRPPQLAFYACLAFC-OH; N-terminus and C-terminus assumed), the IC50 worked out at 34 nM in series [1] and 2570 nM in series [2]. The RBC swelling entry in series [3] is “caused RBC swelling at higher concentrations”. Besides, the “dsDNA-binding (reduction in SYBR Gold fluorescence)” value in series [4] is “bind dsDNA”.

In the case of `CC(C)C[C@H](NC(=O)[C@H](CCC(N)=O)NC(=O)[C@@H]1CCCN1C(=O)[C@H](CO)NC(=O)[C@H](CS)NC(=O)[C@H](CCC(N)=O)NC(=O)[C@@H]1CCCN1C(=O)[C@@H]1CCCN1C(=O)[C@H](CCCNC(=N)N)NC(=O)[C@H](CCCNC(=N)N)NC(=O)[C@H](CCCNC(=N)N)NC(=O)[C@H](CCC(N)=O)NC(=O)[C@H](CCCNC(=N)N)NC(=O)[C@H](CCCNC(=N)N)NC(=O)[C@H](CCCCN)NC(=O)[C@H](CCCCN)NC(=O)[C@H](CCCNC(=N)N)NC(=O)CN)C(=O)N[C@@H](C)C(=O)N1CCC[C@H]1C(=O)N[C@@H](Cc1ccccc1)C(=O)N[C@@H](CS)C(=O)O` [TAT-M41] (H-GRKKRRQRRRPPQCSPQLAPFC-OH; N-terminus and C-terminus assumed), in series [1], 434 nM corresponded to half-maximal inhibition (IC50) and the “fold higher IC50 value compared to TAT-I24, baculovirus-transduced HEK293 cells” value (“fold higher IC50 value” below) is reported as “approximately 20 fold”. Besides, in series [3], the RBC swelling entry is recorded as “did not cause RBC swelling in the absence of serum even at 20 µM”. Also, the “dsDNA-binding (reduction in SYBR Gold fluorescence)” value in series [4] is reported as “less dsDNA-binding”.

Regarding `CC(C)C[C@H](NC(=O)[C@H](CO)NC(=O)[C@H](CC(C)C)NC(=O)[C@H](CCC(N)=O)NC(=O)[C@H](CS)NC(=O)[C@H](CCC(N)=O)NC(=O)[C@@H]1CCCN1C(=O)[C@@H]1CCCN1C(=O)[C@H](CCCNC(=N)N)NC(=O)[C@H](CCCNC(=N)N)NC(=O)[C@H](CCCNC(=N)N)NC(=O)[C@H](CCC(N)=O)NC(=O)[C@H](CCCNC(=N)N)NC(=O)[C@H](CCCNC(=N)N)NC(=O)[C@H](CCCCN)NC(=O)[C@H](CCCCN)NC(=O)[C@H](CCCNC(=N)N)NC(=O)CN)C(=O)N[C@@H](C)C(=O)N1CCC[C@H]1C(=O)N[C@@H](Cc1ccc(O)cc1)C(=O)N[C@@H](CS)C(=O)O` [TAT-M42] (H-GRKKRRQRRRPPQCQLSLAPYC-OH; N-terminus and C-terminus assumed), in series [1], 378 nM corresponded to half-maximal inhibition (IC50) and the “fold higher IC50 value” value is given as “approximately 20 fold”. Besides, in series [3], the RBC swelling entry is given as “did not cause RBC swelling in the absence of serum even at 20 µM”. Moreover, in series [4], the “dsDNA-binding (reduction in SYBR Gold fluorescence)” value is “less dsDNA-binding”.

Consider `CC(C)C[C@H](NC(=O)[C@H](CO)NC(=O)[C@H](CS)NC(=O)[C@H](CCC(N)=O)NC(=O)[C@@H]1CCCN1C(=O)[C@@H]1CCCN1C(=O)[C@H](CCCNC(=N)N)NC(=O)[C@H](CCCNC(=N)N)NC(=O)[C@H](CCCNC(=N)N)NC(=O)[C@H](CCC(N)=O)NC(=O)[C@H](CCCNC(=N)N)NC(=O)[C@H](CCCNC(=N)N)NC(=O)[C@H](CCCCN)NC(=O)[C@H](CCCCN)NC(=O)[C@H](CCCNC(=N)N)NC(=O)CN)C(=O)N[C@@H](C)C(=O)N1CCC[C@H]1C(=O)N[C@@H](C)C(=O)N[C@@H](CC(N)=O)C(=O)N[C@H](C(=O)N[C@@H](CS)C(=O)O)[C@@H](C)O` [TAT-M43] (H-GRKKRRQRRRPPQCSLAPANTC-OH; N-terminus and C-terminus assumed), for which, in series [1], inhibition was half-maximal at 306 nM (IC50) and the “fold higher IC50 value” value is given as “approximately 20 fold”. In addition, in series [3], the RBC swelling result is on record as “did not cause RBC swelling in the absence of serum even at 20 µM”. Moreover, the “dsDNA-binding (reduction in SYBR Gold fluorescence)” value in series [4] is recorded as “less dsDNA-binding”.

For the compound `CC(C)C[C@H](NC(=O)[C@H](C)NC(=O)[C@H](Cc1ccc(O)cc1)NC(=O)[C@H](Cc1ccccc1)NC(=O)[C@H](C)NC(=O)[C@H](CC(C)C)NC(=O)[C@H](Cc1ccc(O)cc1)NC(=O)[C@@H]1CCCN1C(=O)[C@H](CCCNC(=N)N)NC(=O)[C@H](CCCNC(=N)N)NC(=O)[C@H](CCCNC(=N)N)NC(=O)[C@H](CCC(N)=O)NC(=O)[C@H](CCCNC(=N)N)NC(=O)[C@H](CCCNC(=N)N)NC(=O)[C@H](CCCCN)NC(=O)[C@H](CCCCN)NC(=O)[C@H](CCCNC(=N)N)NC(=O)CN)C(=O)N[C@@H](C)C(=O)N[C@@H](Cc1ccccc1)C(=O)N[C@@H](Cc1ccc(O)cc1)C(=O)N[C@@H](C)C(=O)N[C@@H](CS)C(=O)O` [TAT-M214] (H-GRKKRRQRRRPYLAFYALAFYAC-OH), the haemolysis in series [5] (2.5 µM peptide diluted in PBS) turned out to be 14%; in series [5] (5 µM peptide diluted in PBS), 29%; in series [5] (10 µM peptide diluted in PBS), 37%; in series [5] (20 µM peptide diluted in PBS, two experiments in triplicates), 43%. In addition, the “haemolysis in the presence of 10% serum” value in series [5] (peptide diluted in 10% donor serum) is “not in the presence of 10% serum”. Also, the half-maximal inhibitory concentration (IC50) in series [1] amounted to 25 nM; in series [2], 3670 nM. In series [3], the RBC swelling entry is “caused RBC swelling at higher concentrations”.

In the case of `CC(C)C[C@H](NC(=O)[C@H](Cc1ccccc1)NC(=O)[C@H](CS)NC(=O)[C@H](Cc1ccccc1)NC(=O)[C@@H]1CCCN1C(=O)[C@H](CO)NC(=O)[C@H](CCC(N)=O)NC(=O)[C@@H]1CCCN1C(=O)[C@@H]1CCCN1C(=O)[C@H](CCCNC(=N)N)NC(=O)[C@H](CCCNC(=N)N)NC(=O)[C@H](CCCNC(=N)N)NC(=O)[C@H](CCC(N)=O)NC(=O)[C@H](CCCNC(=N)N)NC(=O)[C@H](CCCNC(=N)N)NC(=O)[C@H](CCCCN)NC(=O)[C@H](CCCCN)NC(=O)[C@H](CCCNC(=N)N)NC(=O)CN)C(=O)N[C@@H](C)C(=O)N[C@@H](Cc1ccccc1)C(=O)N[C@@H](CS)C(=O)N[C@@H](Cc1ccccc1)C(=O)O` [TAT-T7] (H-GRKKRRQRRRPPQSPFCFLAFCF-OH; N-terminus and C-terminus assumed), the IC50 in series [1] was determined as 17 nM; in series [2], 1130 nM. Moreover, the “RBC swelling in the presence of serum” value in series [3] (peptides diluted in 10% human/donor serum) is on record as “not in the presence of donor serum”. The RBC swelling entry in series [3] is “caused RBC swelling at higher concentrations”.

For the compound “CLAFYACF (disulfide 1-7 (inferred)) [C22del_cyc, TAT-I24 with a cyclized I24 peptide (CLAFYACF), cyclized via the two cysteine residues; previous study]”, in series [6], the “effect on localization of DiO-labelled MCMV” value was “no effect on localization of DiO-labelled MCMV”.
